The source of these data is ChEMBL document CHEMBL1154470, “Synthesis and antimicrobial activities of a new series of 4-S-[4(1)-amino-5(1)-oxo-6(1)-substituted benzyl-4(1),5(1)-dihydro-1(1),2(1),4(1)-triazin-3-yl]mercaptoacetyl-3-arylsydnones” (2008).

Common to all, as to assay type: functional
The subject of one experiment is Escherichia coli. Kind of experiment: Antibacterial activity against Escherichia coli ATCC 25922 by serial dilution method.
The next experiment deals with Staphylococcus aureus. Kind of experiment: Antibacterial activity against Staphylococcus aureus ATCC 25923 by serial dilution method.
Another experiment has as its system Pseudomonas aeruginosa. Kind of experiment: Antibacterial activity against Pseudomonas aeruginosa ATCC 27853 by serial dilution method.
Another experiment has as its system Candida albicans. Kind of experiment: Antifungal activity against Candida albicans NCIM No. 3100 by serial dilution method.
The next experiment has as its system Bacillus subtilis. Kind of experiment: Antibacterial activity against Bacillus subtilis by serial dilution method.

Structures are written as SMILES. Converted amounts (≈) assume the structure as drawn.

With `Cc1ccc(-[n+]2noc([O-])c2C(=O)CSc2nnc(Cc3ccc(Cl)cc3)c(=O)n2N)cc1`, the MIC in the experiment with Escherichia coli, in the experiment on Staphylococcus aureus, with Pseudomonas aeruginosa, in the experiment with Candida albicans and against Bacillus subtilis was 0.25 µg/mL (≈ 0.516 µM) each time.
In the case of `Cc1ccc(-[n+]2noc([O-])c2C(=O)CSc2nnc(Cc3ccccc3)c(=O)n2N)cc1`, the MIC against Escherichia coli, with Staphylococcus aureus, against Pseudomonas aeruginosa, in the experiment on Candida albicans and with Bacillus subtilis was 0.25 µg/mL (≈ 0.555 µM) throughout.
Turning to `Nn1c(SCC(=O)c2c([O-])on[n+]2-c2ccccc2)nnc(Cc2ccc([N+](=O)[O-])cc2)c1=O`, the MIC against Escherichia coli was determined as 0.25 µg/mL (≈ 0.519 µM); in the experiment with Staphylococcus aureus it was 0.5 µg/mL (≈ 1.04 µM); in the experiment with Pseudomonas aeruginosa, 0.25 µg/mL (≈ 0.519 µM); against Candida albicans, 0.25 µg/mL (≈ 0.519 µM); in the experiment on Bacillus subtilis, 0.25 µg/mL (≈ 0.519 µM).
For `Nn1c(SCC(=O)c2c([O-])on[n+]2-c2ccccc2)nnc(Cc2ccc3c(c2)OCO3)c1=O`, the MIC in the experiment on Escherichia coli, with Staphylococcus aureus, in the experiment with Pseudomonas aeruginosa, with Candida albicans and against Bacillus subtilis was 0.25 µg/mL (≈ 0.52 µM) each time.
As to `Nn1c(SCC(=O)c2c([O-])on[n+]2-c2ccccc2)nnc(Cc2ccccc2)c1=O`, the MIC against Escherichia coli, against Staphylococcus aureus, in the experiment with Pseudomonas aeruginosa, against Candida albicans and in the experiment with Bacillus subtilis was 0.25 µg/mL (≈ 0.573 µM) each time.
For the molecule `COc1ccc(-[n+]2noc([O-])c2C(=O)CSc2nnc(Cc3ccccc3)c(=O)n2N)cc1`, the MIC with Escherichia coli, in the experiment on Staphylococcus aureus, against Pseudomonas aeruginosa, in the experiment on Candida albicans and against Bacillus subtilis was 0.25 µg/mL (≈ 0.536 µM) throughout.
Consider `OC(Cn1cncn1)(Cn1cncn1)c1ccc(F)cc1F` [FLUCONAZOLE], for which 0.25 µg/mL (≈ 0.816 µM) was the least that counted as inhibitory with Candida albicans (MIC).
Regarding `Cc1ccc(-[n+]2noc([O-])c2C(=O)CSc2nnc(Cc3ccc4c(c3)OCO4)c(=O)n2N)cc1`, the MIC in the experiment with Escherichia coli, in the experiment on Staphylococcus aureus, against Pseudomonas aeruginosa, in the experiment on Candida albicans and against Bacillus subtilis was 0.25 µg/mL (≈ 0.506 µM) in each case.
`Nn1c(SCC(=O)c2c([O-])on[n+]2-c2ccccc2)nnc(Cc2ccc(Cl)cc2)c1=O`: the MIC with Escherichia coli, in the experiment with Staphylococcus aureus, with Pseudomonas aeruginosa, in the experiment with Candida albicans and in the experiment on Bacillus subtilis was 0.25 µg/mL (≈ 0.531 µM) in each case.
Regarding `Cc1ccc(-[n+]2noc([O-])c2C(=O)CSc2nnc(Cc3ccc(Br)cc3)c(=O)n2N)cc1`, the MIC against Escherichia coli, in the experiment with Staphylococcus aureus, against Pseudomonas aeruginosa, with Candida albicans and against Bacillus subtilis was 0.25 µg/mL (≈ 0.472 µM) throughout.
As to `Nn1c(SCC(=O)c2c([O-])on[n+]2-c2ccccc2)nnc(Cc2ccc(Br)cc2)c1=O`, the MIC against Escherichia coli, in the experiment on Staphylococcus aureus, with Pseudomonas aeruginosa, against Candida albicans and in the experiment on Bacillus subtilis was 0.25 µg/mL (≈ 0.485 µM) in each case.
For the molecule `COc1ccc(-[n+]2noc([O-])c2C(=O)CSc2nnc(Cc3ccc(Cl)cc3)c(=O)n2N)cc1`, the minimum inhibitory concentration (MIC) against Escherichia coli, with Staphylococcus aureus, in the experiment with Pseudomonas aeruginosa, in the experiment on Candida albicans and against Bacillus subtilis was 0.25 µg/mL (≈ 0.499 µM) each time.
On to `NC(=O)N/N=C/c1ccc([N+](=O)[O-])o1` [NITROFURAZONE], for which the MIC against Escherichia coli amounted to 0.25 µg/mL (≈ 1.26 µM); in the experiment on Staphylococcus aureus it was 0.5 µg/mL (≈ 2.52 µM); in the experiment with Pseudomonas aeruginosa, 0.5 µg/mL (≈ 2.52 µM); in the experiment with Bacillus subtilis it was 0.5 µg/mL (≈ 2.52 µM).
As to `COc1ccc(-[n+]2noc([O-])c2C(=O)CSc2nnc(Cc3ccc(Br)cc3)c(=O)n2N)cc1`, the MIC in the experiment on Escherichia coli, in the experiment with Staphylococcus aureus, against Pseudomonas aeruginosa, in the experiment with Candida albicans and in the experiment with Bacillus subtilis was 0.25 µg/mL (≈ 0.458 µM) throughout.

A word on the MIC: it is the smallest concentration in the dilution series that meets the test's criterion for growth inhibition. Higher therefore signals a need for much substance.
